Test results from patent publication US20200368247A1, “CENICRIVIROC FOR THE TREATMENT OF FIBROSIS” (Tobira Therapeutics, Inc., priority 2014, published 2020).
Read-outs that look alike come from different tables or passages of the source.

Details: for SAE: Suicidal ideation: through Week 48
From the text: Subjects with a history of HIV-2, hepatitis B and/or C, cirrhosis of the liver or any known active or chronic active liver disease were excluded from the study.
Most AEs were mild or moderate (Grade 1 or Grade 2). […] None of the Grade ≥3 AEs (preferred terms) were reported in more than 1 subject. Table 28 provides an overview of deaths, SAES, AEs, AEs by severity, AEs related to study medication, and AE leading to discontinuation.

[1] = All CVC (N = 115), EFV (N = 28)
[2] = All CVC (N = 115), EFV (N = 28; Grade 4 event)

CCCCOCCOc1ccc(-c2ccc3c(c2)/C=C(/C(=O)Nc2ccc([S@@+]([O-])Cc4cncn4CCC)cc2)CCCN3CC(C)C)cc1 [CVC, (S)-8-[4-(2-Butoxyethoxy)phenyl]-1-isobutyl-N-(4-{[(1-propyl-1H-imidazol-5-yl)methyl]sulfinyl}phenyl)-1,2,3,4-tetrahydro-1-benzazocine-5-carboxamide]
(12%): Fatigue, % (human, in vivo, 48 week) | Rash, % (human, in vivo, 48 week)
(15%): Diarrhoea, % (human, in vivo, 48 week)
(16%): Nausea, % (human, in vivo, 48 week) | Upper respiratory tract infection, % (human, in vivo, 48 week)
5 n: Subjects with AEs, by worst grade severity: Grade 3 (human, in vivo, 48 week) | Any Grade 3 AE (human, in vivo, 48 weeks)
99 n: Subjects with ≥1 AE (human, in vivo, 48 weeks)
(10%): Dizziness, % (human, in vivo, 48 weeks)
0 n: Deaths [1] | SAE: Suicidal ideation [1] | Grade 3 or 4 AE: Suicidal ideation [2] | Deaths (CVC 100 mg (N = 58)) | Grade 3 or 4 AE: Suicidal ideation (CVC 100 mg (N = 58)) | SAE: Suicidal ideation (CVC 100 mg (N = 58)) | Deaths (CVC 200 mg (N = 57)) | Grade 3 or 4 AE: Suicidal ideation (CVC 200 mg (N = 57)) | SAE: Suicidal ideation (CVC 200 mg (N = 57)) | AE leading to discontinuation: Abnormal dreams (human, in vivo, 48 week) | AE leading to discontinuation: Anxiety (human, in vivo, 48 week) | AE leading to discontinuation: Dermatitis allergic (human, in vivo, 48 week) | AE leading to discontinuation: Ear and labyrinth disorders (human, in vivo, 48 week) | AE leading to discontinuation: Insomnia (human, in vivo, 48 week) | AE leading to discontinuation: Rash (human, in vivo, 48 week) | AE leading to discontinuation: Skin and subcutaneous tissue disorders (human, in vivo, 48 week) | AE leading to discontinuation: Tachyphrenia (human, in vivo, 48 week) | AE leading to discontinuation: Tinnitus (human, in vivo, 48 week) | Subjects with AEs, by worst grade severity: Grade 4 (human, in vivo, 48 week) | AE leading to discontinuation: Disturbance in attention (human, in vivo, 48 weeks) | AE leading to discontinuation: Dizziness (human, in vivo, 48 weeks) | AE leading to discontinuation: Eye disorders (human, in vivo, 48 weeks) | AE leading to discontinuation: Gastrointestinal disorders (human, in vivo, 48 weeks) | AE leading to discontinuation: Hypoaesthesia (human, in vivo, 48 weeks) | AE leading to discontinuation: Musculoskeletal and connective tissue disorders (human, in vivo, 48 weeks) | AE leading to discontinuation: Musculoskeletal discomfort (human, in vivo, 48 weeks) | AE leading to discontinuation: Nausea (human, in vivo, 48 weeks) | AE leading to discontinuation: Nervous system disorders (human, in vivo, 48 weeks) | AE leading to discontinuation: Photophobia (human, in vivo, 48 weeks) | Any Grade 4 AE (human, in vivo, 48 weeks) | Grade 3 or 4 AE: Depression (human, in vivo, 48 weeks) | Grade 3 or 4 AE: Dermatitis allergic (human, in vivo, 48 weeks) | Grade 3 or 4 AE: Ear and labyrinth disorders (human, in vivo, 48 weeks) | Grade 3 or 4 AE: Skin and subcutaneous tissue disorders (human, in vivo, 48 weeks) | Grade 3 or 4 AE: Tinnitus (human, in vivo, 48 weeks) | Grade 3 or 4 AE: Weight decreased (human, in vivo, 48 weeks) | SAE: Depression (human, in vivo, 48 weeks) | SAE: Psychiatric disorders (human, in vivo, 48 weeks)
(6): Insomnia, % (human, in vivo, 48 weeks)
2 n: Any SAE (human, in vivo, 48 weeks) | SAE: Infections and infestations (human, in vivo, 48 weeks) | Subjects with serious AEs (human, in vivo, 48 weeks)
1 n: AE leading to discontinuation: Aggression (human, in vivo, 48 week) | AE leading to discontinuation: Depression (human, in vivo, 48 week) | AE leading to discontinuation: Psychiatric disorders (human, in vivo, 48 week) | AE leading to discontinuation: Thinking abnormal (human, in vivo, 48 week) | Subjects with AEs leading to discontinuation of study medication (human, in vivo, 48 week) | AE leading to discontinuation: General disorders and administration site conditions (human, in vivo, 48 weeks) | AE leading to discontinuation: Malaise (human, in vivo, 48 weeks) | Any AE leading to discontinuation of study drug (human, in vivo, 48 weeks) | Grade 3 or 4 AE: Abdominal pain (human, in vivo, 48 weeks) | Grade 3 or 4 AE: Blindness unilateral (human, in vivo, 48 weeks) | Grade 3 or 4 AE: Blood creatine phosphokinase increased (human, in vivo, 48 weeks) | Grade 3 or 4 AE: Cardiac disorders (human, in vivo, 48 weeks) | Grade 3 or 4 AE: Corneal infection (human, in vivo, 48 weeks) | Grade 3 or 4 AE: Eye disorders (human, in vivo, 48 weeks) | Grade 3 or 4 AE: Gastrointestinal disorders (human, in vivo, 48 weeks) | Grade 3 or 4 AE: General disorders and administration site conditions (human, in vivo, 48 weeks) | Grade 3 or 4 AE: Infections and infestations (human, in vivo, 48 weeks) | Grade 3 or 4 AE: Investigations (human, in vivo, 48 weeks) | Grade 3 or 4 AE: Palpitations (human, in vivo, 48 weeks) | Grade 3 or 4 AE: Psychiatric disorders (human, in vivo, 48 weeks) | Grade 3 or 4 AE: Pyrexia (human, in vivo, 48 weeks) | Grade 3 or 4 AE: Stress (human, in vivo, 48 weeks) | SAE: Blindness unilateral (human, in vivo, 48 weeks) | SAE: Corneal infection (human, in vivo, 48 weeks) | SAE: Eye disorders (human, in vivo, 48 weeks) | SAE: Gastroenteritis (human, in vivo, 48 weeks)
(9%): Nasopharyngitis, % (human, in vivo, 48 weeks)
44 n: Subjects with AEs, by worst grade severity: Grade 2 (human, in vivo, 48 week)
(8%): Abnormal dreams, % (human, in vivo, 48 weeks)
54 n: Subjects with AEs related to study medication (human, in vivo, 48 week)
(14%): Headache, % (human, in vivo, 48 week)
(6%): Lymphadenopathy, % (human, in vivo, 48 weeks)
(86%): Any AE, % (human, in vivo, 48 week)
(3%): Depression, % (human, in vivo, 48 week)
(1%): Syphilis, % (human, in vivo, 48 week)
50 n: Subjects with AEs, by worst grade severity: Grade 1 (human, in vivo, 48 week)

O=C1Nc2ccc(Cl)cc2[C@@](C#CC2CC2)(C(F)(F)F)O1 [EFV, efavirenz, reference compound]
4 n: AE leading to discontinuation: Nervous system disorders (human, in vivo, 48 weeks)
(14%): Insomnia, % (human, in vivo, 48 weeks) | Lymphadenopathy, % (human, in vivo, 48 weeks)
6 subjects: AEs leading to discontinuation of study medication, subjects (human, in vivo, 48 weeks)
13 n: Subjects with AEs, by worst grade severity: Grade 2 (human, in vivo, 48 week)
20 n: Subjects with AEs related to study medication (human, in vivo, 48 week)
(7%): Upper respiratory tract infection, % (human, in vivo, 48 week)
(29%): Dizziness, % (human, in vivo, 48 weeks)
0 n: Deaths [1] | AE leading to discontinuation: Aggression (human, in vivo, 48 week) | AE leading to discontinuation: Thinking abnormal (human, in vivo, 48 week) | Subjects with AEs, by worst grade severity: Grade 4 (human, in vivo, 48 week) | AE leading to discontinuation: General disorders and administration site conditions (human, in vivo, 48 weeks) | AE leading to discontinuation: Malaise (human, in vivo, 48 weeks) | Grade 3 or 4 AE: Abdominal pain (human, in vivo, 48 weeks) | Grade 3 or 4 AE: Blindness unilateral (human, in vivo, 48 weeks) | Grade 3 or 4 AE: Blood creatine phosphokinase increased (human, in vivo, 48 weeks) | Grade 3 or 4 AE: Cardiac disorders (human, in vivo, 48 weeks) | Grade 3 or 4 AE: Corneal infection (human, in vivo, 48 weeks) | Grade 3 or 4 AE: Eye disorders (human, in vivo, 48 weeks) | Grade 3 or 4 AE: Gastrointestinal disorders (human, in vivo, 48 weeks) | Grade 3 or 4 AE: General disorders and administration site conditions (human, in vivo, 48 weeks) | Grade 3 or 4 AE: Infections and infestations (human, in vivo, 48 weeks) | Grade 3 or 4 AE: Palpitations (human, in vivo, 48 weeks) | Grade 3 or 4 AE: Pyrexia (human, in vivo, 48 weeks) | Grade 3 or 4 AE: Stress (human, in vivo, 48 weeks) | SAE: Blindness unilateral (human, in vivo, 48 weeks) | SAE: Corneal infection (human, in vivo, 48 weeks) | SAE: Eye disorders (human, in vivo, 48 weeks) | SAE: Gastroenteritis (human, in vivo, 48 weeks) | SAE: Infections and infestations (human, in vivo, 48 weeks)
(4%): Fatigue, % (human, in vivo, 48 week) | Nasopharyngitis, % (human, in vivo, 48 weeks)
(18%): Rash, % (human, in vivo, 48 week)
27 n: Subjects with ≥1 AE (human, in vivo, 48 weeks)
2 n: AE leading to discontinuation: Skin and subcutaneous tissue disorders (human, in vivo, 48 week) | AE leading to discontinuation: Dizziness (human, in vivo, 48 weeks)
(11%): Depression, % (human, in vivo, 48 week) | Diarrhoea, % (human, in vivo, 48 week) | Syphilis, % (human, in vivo, 48 week)
10 n: Subjects with AEs, by worst grade severity: Grade 1 (human, in vivo, 48 week)
3 n: AE leading to discontinuation: Insomnia (human, in vivo, 48 week) | AE leading to discontinuation: Psychiatric disorders (human, in vivo, 48 week) | Subjects with AEs, by worst grade severity: Grade 3 (human, in vivo, 48 week) | Any Grade 3 AE (human, in vivo, 48 weeks)
21%: AEs leading to discontinuation of study medication, % (human, in vivo, 48 weeks)
(21%): Nausea, % (human, in vivo, 48 week) | Abnormal dreams, % (human, in vivo, 48 weeks)
6 n: Subjects with AEs leading to discontinuation of study medication (human, in vivo, 48 week) | Any AE leading to discontinuation of study drug (human, in vivo, 48 weeks)
1 n: SAE: Suicidal ideation [1] | Grade 3 or 4 AE: Suicidal ideation [2] | AE leading to discontinuation: Abnormal dreams (human, in vivo, 48 week) | AE leading to discontinuation: Anxiety (human, in vivo, 48 week) | AE leading to discontinuation: Depression (human, in vivo, 48 week) | AE leading to discontinuation: Dermatitis allergic (human, in vivo, 48 week) | AE leading to discontinuation: Ear and labyrinth disorders (human, in vivo, 48 week) | AE leading to discontinuation: Rash (human, in vivo, 48 week) | AE leading to discontinuation: Tachyphrenia (human, in vivo, 48 week) | AE leading to discontinuation: Tinnitus (human, in vivo, 48 week) | AE leading to discontinuation: Disturbance in attention (human, in vivo, 48 weeks) | AE leading to discontinuation: Eye disorders (human, in vivo, 48 weeks) | AE leading to discontinuation: Gastrointestinal disorders (human, in vivo, 48 weeks) | AE leading to discontinuation: Hypoaesthesia (human, in vivo, 48 weeks) | AE leading to discontinuation: Musculoskeletal and connective tissue disorders (human, in vivo, 48 weeks) | AE leading to discontinuation: Musculoskeletal discomfort (human, in vivo, 48 weeks) | AE leading to discontinuation: Nausea (human, in vivo, 48 weeks) | AE leading to discontinuation: Photophobia (human, in vivo, 48 weeks) | Any Grade 4 AE (human, in vivo, 48 weeks) | Any SAE (human, in vivo, 48 weeks) | Grade 3 or 4 AE: Depression (human, in vivo, 48 weeks) | Grade 3 or 4 AE: Dermatitis allergic (human, in vivo, 48 weeks) | Grade 3 or 4 AE: Ear and labyrinth disorders (human, in vivo, 48 weeks) | Grade 3 or 4 AE: Investigations (human, in vivo, 48 weeks) | Grade 3 or 4 AE: Psychiatric disorders (human, in vivo, 48 weeks) | Grade 3 or 4 AE: Skin and subcutaneous tissue disorders (human, in vivo, 48 weeks) | Grade 3 or 4 AE: Tinnitus (human, in vivo, 48 weeks) | Grade 3 or 4 AE: Weight decreased (human, in vivo, 48 weeks) | SAE: Depression (human, in vivo, 48 weeks) | SAE: Psychiatric disorders (human, in vivo, 48 weeks) | Subjects with serious AEs (human, in vivo, 48 weeks)
